Tests used:
[1] = system: 786-O RCC xenograft; test: 786-O RCC xenograft tumor growth; assay type: in vivo, mouse
Method: (§1) Xenograft RCC models were generated as follows: Female NOD.SCID mice (6-8 weeks of age) were injected with A498 RCC cells (5×10^6 cells/mouse), female Balb/c Nude mice (6-8 weeks old) were implanted with 786-O RCC cells (5×10^6 cells/mouse) or Caki-1 RCC cells (6×10^6 cells/mouse), female Athymic Nude-Foxn1nu mice (7-8 weeks of age) were implanted with MFE280 endometrial cells (10×10^6 cells/mouse). Cells were implanted into the flank of animals.
(§2) Once tumor tumors reached volume of typically 150-250 mm^3, animals were randomized by tumor volume into the treatment groups of 8 or 10 animals per group. In the single animal trial with RCC PDX models, only one animal per group was enrolled.
(§3) Body weight and tumor volume were measured twice weekly. Tumor volume was calculated using the formula [tumor volume (mm^3)=π/6×length×width^2] and plotted as means+SEM. The percentage of tumor growth inhibition was calculated at the end of the study using the formula: […], if ΔT>0, ΔT, mean tumor volume of the drug-treated group on the observation day of the study—mean tumor volume of the drug-treated group on initial day of dosing; ΔC, mean tumor volume of the control group on the observation day of the study—mean tumor volume of the control group on initial day of dosing. Regression was calculated using the formula=100×ΔT/Tinitial, if ΔT<0. Animals with >50% regressions were partial responders. Animals with tumor volume of 0 (no measurable tumor) were considered as complete responders, and animals with <50% tumor regression and 30% growth over the baseline were considered as stable disease. Animals with tumors>30% increase over the baseline were considered progressive disease. The % change in body weight was calculated by the formula (body weight on observation day−body weight on initial day)/body weight on initial day×100%.

[2] = system: A498 RCC xenograft; test: A498 RCC xenograft tumor growth; assay type: in vivo, mouse
Method: as §1, §2, §3

[3] = system: RXF-2304; test: RCC PDX single animal trial, RXF-2304; assay type: in vivo, mouse; conditions: HC-5404 30 mg/kg PO BID, n=1
Text: (§4) This example investigated the effect of HC-5404 in combination with VEGFR-TKIs in inhibiting tumor growth using 12 RCC PDX tumor models, following procedures analogous to those described above.
(§5) Single animal per group (n=1) trial of animals harboring diverse RCC PDX models were used in this study.

[4] = system: tumor vasculature of 786-O xenografts; test: IHC of tumor vasculature in 786-O xenografts; assay type: in vivo, mouse
Method: Formalin-fixed paraffin-embedded samples were sectioned at 5 μm thickness and mounted on Superfrost Plus microscope slides (Fisher Scientific). All immunohistochemical (IHC) staining was performed on Bond Rx auto-stainer (Leica Biosystems) using the conventional TSA-amplified detection system. Primary antibodies used were as follows: α-CD31 (Abcam #ab182981), α-smooth muscle actin (SMA; Abcam #ab124964), α-Meca32 (Novus Biologicals #NB100-77668). TSA-conjugated Alexa488 and Alexa647 fluorophores from Invitrogen (#B40953 and #B40958) were used at 1:500 dilution. Slides were counterstained with DAPI and cover slipped using Mowiol antifade mounting media (Sigma #D2522).
Slides were imaged with Aperio Versa 200 (Leica Biosystems) whole-slide scanner using 10×/0.32NA objective, and the data were analyzed using custom-written macros in ImageJ/FIJI (NIH). Briefly, 150 μm of outer edges of the tumor sections were eliminated from the analysis. Gaussian-blurred DAPI channel was used to measure the area of the tissue. Scans of […] were processed with median filter to remove noise, then positive areas were measured with appropriate threshold levels. % positive area for each marker was calculated. CD31-SMA double positive areas were measured via image calculation of the binary images. One-way ANOVA and pair-wise comparisons were performed on the data using Prism GraphPad.
PERK is an adaptive stress response that links hypoxia and nutrient deprivation with proangiogenic signaling. The effect of HC-5404 on tumor vasculature when administered in combination with antiangiogenic VEGFR-TKIs was investigated.
As immature blood vessels mature, they develop a mural layer of cells that express smooth muscle actin (SMA), which encircles and stabilizes the maturing vessel. Co-staining for both CD31 and SMA was conducted to determine whether treatments were affecting mature or immature tumor blood vessels.
This example investigated the inhibition the effect of cabozantinib on the formation of new tumor vasculature and on pericytes following procedures analogous to those described above.

[5] = system: HMGB1 in 786-O xenograft; test: HMGB1 IHC in 786-O xenografts; assay type: in vivo, mouse; conditions: 30 mg/kg, compared to vehicle (FIG. 4D)
Method: 786-O tumor cells were maintained in vitro with MEM medium supplemented with 10% heat inactivated fetal bovine serum and 0.01 mM NEAA, at 37 °C in an atmosphere of 5% CO2. Each mouse was inoculated subcutaneously at the right front region with 786-O tumor cells (5×106) in 0.1 ml of PBS (1:1 matrigel) for tumor development. The randomization for efficacy study began when the mean tumor size reached approximately 200-300 mm^3, preferably to initiate with 250 mm^3. […]
Paraffin sections of tumor samples were stained on slides for HMGB1 using the Abcam antibody (cat #ab18256) and chromogenic DAB staining on Bond Rx (Leica Biosystems). The slides were digitized by Leica AT2 slide scanner with 40× objective. The scanned images were analyzed using custom-written macro in ImageJ/FIJI (NIH) to measure nuclear and non-nuclear signal (FIGS. 4C and 4D).

[6] = system: RXF-2540; test: RCC PDX single animal trial, RXF-2540; assay type: in vivo, mouse; conditions: HC-5404 30 mg/kg PO BID, n=1
Text: as §4, §5

[7] = system: ATF4 levels in HEK293; test: HEK293 cell-based ATF4 western blot; conditions: Homo sapiens; HEK293, tunicamycin 1 μM
Method: Cell based assays HEK293 cells were plated at 1×10^6 cells per well and treated with HC-5404 30 minutes prior to addition of tunicamycin (1 μM) to induce ER stress. Cells were harvested 4 hours following tunicamycin addition and lysed for western blotting in RIPA buffer supplemented with protease and phosphatase inhibitors. Total protein concentrations were determined by BCA and […] of protein were loaded on to SDS-PAGE gels, transferred to nitrocellulose and probed with a primary antibody against phosphorylated T-982 of human PERK or total ATF4 followed by incubation with an infrared labelled secondary antibody. Blots were imaged on a LiCor imager and normalized to total protein in the wells using Revert™ stain. Band intensities were quantified and normalized to DMSO treated samples. Normalized band intensities were plotted as percent inhibition against 10-point; 3-fold dilution series of HC-5404. IC50 values were calculated using 4-parameter logistical fitting in XLFit.
The cell-based activity of HC-5404 was evaluated using HEK293 treated with tunicamycin (Tm; 1 μM) to induce ER stress.

[8] = 10 and 30 mg/kg PO BID tested, 28 days (FIG. 36)

## Cc1cc(NC(=O)[C@H](O)c2cc(F)cc(F)c2)ccc1-c1cnc(N)c(C(=O)NC(C)C)c1 [HC-5404, (R)-2-amino-5-(4-(2-(3,5-difluorophenyl)-2-hydroxyacetamido)-2-methylphenyl)-N-isopropylnicotinamide]
[1]; 30 mg/kg PO BID, 28 days (FIG. 22)
  tumor growth inhibition: 48%
[1]; 3, 10, 30 mg/kg BID vs 6, 20, 60 mg/kg QD, PO
  difference between BID and QD dosing: not statistically significant
[1]; [8]
  TGI: approximately 52%
[1]; HC-5404 30 mg/kg PO BID, cabozantinib combination study (FIG. 52)
  TGI %: ~ 61%
[1]; HC-5404 3, 10 and 30 mg/kg PO BID
  dose dependence of antitumor efficacy: trend for dose-dependent antitumor efficacy
[1]; single agent, efficacy arms (FIG. 28)
  effect on tumor volume: modest effects on tumor volume
[2]; [8]
  TGI: ~41%
[2]; single agent: HC-5404 30 mg/kg PO BID or sunitinib 20 mg/kg PO QD (FIG. 31)
  TGI: ~ 40%
[3]
  antitumor efficacy as monotherapy: exhibited antitumor efficacy
[4]; HC-5404 single agent (FIG. 39)
  expression of any vascular markers: did not affect the expression of any vascular markers
[4]; axitinib study (FIG. 38, 39)
  proportion of Meca32 expressing vascular endothelial cells: did not affect this vascular endothelium marker
[5]
  HMGB1 cytoplasmic expression: induced
[6]
  antitumor efficacy as monotherapy: exhibited antitumor efficacy
[7]
  IC50: 115 nM

— US20260373132A1, “PERK INHIBITORHC-5404 IN COMBINATION WITH ANTI-PD-1 ANTIBODY AND/OR AN ANTIANGIOGENETIC AGENT FOR USE IN THE TREATMENT OF CANCER” (HIBERCELL, INC., priority 2022, published 2026)
